# Measured values as given in article PMC10223454, “Functional Characterization of a New Degradation Peptide BmTX4-P1 from Traditional Chinese Scorpion Medicinal Material” (Toxins, 2023).
# Peptide text beside a SMILES is read from it.
# Tests used:
# hKv1.1 channel = experiment: whole-cell patch clamp, hKv1.1 channel currents; assay type: cell-based, human; settings: 1 µM, n ≥ 3
# Source text: (§1) The source of potassium channel plasmids was described in detail in previous articles. The cDNA encoding hKv1.1 channel, hKv1.3 channel, and rKv4.3 channel were subcloned into the vector of pCDNA3.1(+). The cDNA encoding hKv1.2 channel, hKv1.6 channel, hKv3.2 channel, hERG channel, and mKv4.1 channel were subcloned into the vector of pIRES2-EGFP. The cDNA encoding rKv4.2 was subcloned into the vector of pEGFP-N1.
# (§2) DMEM (Gibco, Pittsburgh, PA, USA) with 10% fetal bovine serum and 1% penicillin/streptomycin was applied to culture HEK293T cells in an incubator with 5% CO2 at 37 °C. According to the manufacturer’s instructions, ExFect Transfection Reagent (Vazyme, Nanjing, China) was used to co-transfect the plasmids of pEGFP-N1 and potassium channels into HEK293T cells. Fluorescence-positive cells were selected for electrophysiological experiments after transfection for 12 h to 24 h.
# (§3) Whole-cell channel currents were measured and recorded by an EPC-10 patch-clamp amplifier controlled by PatchMaster (HEKA Elektronik, Lambrecht, Germany). The internal patch pipette solution and bath solution were prepared according to the protocol in previously published references. […] The currents of different potassium channels were generated and recorded following the respective protocols according to previously published references. […]
# hKv1.2 channel = target: T1, hKv1.2 channel (Homo sapiens, UniProt P16389); experiment: whole-cell patch clamp, hKv1.2 channel currents; assay type: cell-based; settings: for IC50: peak tail current, Hill equation fit
# T1 construct: expressed in transfected cells
# T1 sequence (P16389 whole entry): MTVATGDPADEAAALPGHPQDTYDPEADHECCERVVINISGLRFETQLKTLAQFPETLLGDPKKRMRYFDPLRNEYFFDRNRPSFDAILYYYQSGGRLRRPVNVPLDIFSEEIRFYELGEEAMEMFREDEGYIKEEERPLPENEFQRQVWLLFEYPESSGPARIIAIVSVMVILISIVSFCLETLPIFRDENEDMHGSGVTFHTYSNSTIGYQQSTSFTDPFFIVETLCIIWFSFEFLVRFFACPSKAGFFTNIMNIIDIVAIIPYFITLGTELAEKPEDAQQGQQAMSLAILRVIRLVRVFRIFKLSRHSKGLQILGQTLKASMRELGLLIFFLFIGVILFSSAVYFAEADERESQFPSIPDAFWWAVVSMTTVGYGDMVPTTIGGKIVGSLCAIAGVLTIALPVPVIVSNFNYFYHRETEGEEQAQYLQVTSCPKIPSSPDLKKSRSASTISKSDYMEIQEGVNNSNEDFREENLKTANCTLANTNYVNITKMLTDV
# Source text: as §1, §2
# (§4) Whole-cell channel currents were measured and recorded by an EPC-10 patch-clamp amplifier controlled by PatchMaster (HEKA Elektronik, Lambrecht, Germany). The internal patch pipette solution and bath solution were prepared according to the protocol in previously published references. Bath solution with 0.01% BSA (Gibco, Pittsburgh, PA, USA) was used to dissolve peptides for electrophysiological testing. The external recording bath solution was exchanged by the MPS-2 multichannel microperfusion system (INBIO Inc., Wuhan, China). The currents of different potassium channels were generated and recorded following the respective protocols according to previously published references. The results of the electrophysiological experiment are presented as the mean ± SE, and more than three cells from each sample were examined (n ≥ 3).
# (§5) The software of Clampfit (Molecular Devices, Sunnyvale, CA, USA) and Sigmaplot (IBM SPSS, Chicago, IL, USA) were applied to analyze the electrophysiological data. In order to obtain IC50 values, the concentrations of peptides and currents of potassium channels were used to fit the modified Hill equation for dose–response relationships: Ipeptide/Icontrol = 1/[1 + Cpeptide/IC50], in which Ipeptide and Icontrol represent the peak tail current of potassium channels in the presence and absence of peptide, Cpeptide represents the concentration of peptides and IC50 represents the half-maximum inhibition concentration. The results are presented as the mean ± SE.
# hKv1.3 channel = target: T2, hKv1.3 channel (Homo sapiens, UniProt P22001); experiment: whole-cell patch clamp, hKv1.3 channel currents; assay type: cell-based; settings: for IC50: peak tail current, Hill equation fit
# T2 construct: expressed in transfected cells
# T2 sequence (P22001 whole entry): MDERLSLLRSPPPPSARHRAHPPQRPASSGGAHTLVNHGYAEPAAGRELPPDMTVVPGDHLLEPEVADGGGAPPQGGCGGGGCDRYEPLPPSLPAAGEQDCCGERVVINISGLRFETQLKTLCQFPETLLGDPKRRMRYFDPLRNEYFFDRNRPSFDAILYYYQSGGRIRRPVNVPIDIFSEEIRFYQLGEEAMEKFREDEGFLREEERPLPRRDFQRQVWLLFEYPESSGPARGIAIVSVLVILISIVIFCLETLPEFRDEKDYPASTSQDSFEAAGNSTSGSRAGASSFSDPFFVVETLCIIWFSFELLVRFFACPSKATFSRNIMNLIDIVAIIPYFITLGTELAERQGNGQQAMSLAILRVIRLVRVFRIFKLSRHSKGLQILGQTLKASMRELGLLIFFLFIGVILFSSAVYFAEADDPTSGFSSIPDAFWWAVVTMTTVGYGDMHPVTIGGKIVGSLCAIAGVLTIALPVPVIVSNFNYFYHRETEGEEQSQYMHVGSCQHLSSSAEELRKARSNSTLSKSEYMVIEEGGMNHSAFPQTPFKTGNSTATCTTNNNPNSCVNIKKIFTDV
# Source text: as §1, §2, §4, §5
# hKv1.6 channel = experiment: whole-cell patch clamp, hKv1.6 channel currents; assay type: cell-based, human; settings: 1 µM, transiently transfected HEK293 cells, mean ± SE, n ≥ 3
# Source text: as §1, §2, §3
# hKv3.2 channel = experiment: whole-cell patch clamp, hKv3.2 channel currents; assay type: cell-based, human; settings: 1 µM, transiently transfected HEK293 cells, mean ± SE, n ≥ 3
# Source text: as §1, §2, §3
# rKv4.1 channel = experiment: whole-cell patch clamp, rKv4.1 channel currents; assay type: cell-based, rat; settings: 1 µM, transiently transfected HEK293 cells, mean ± SE, n ≥ 3
# rKv4.2 channel = experiment: whole-cell patch clamp, rKv4.2 channel currents; assay type: cell-based, rat; settings: 1 µM, transiently transfected HEK293 cells, mean ± SE, n ≥ 3
# Source text: as §1, §2, §3
# mKv4.3 channel = experiment: whole-cell patch clamp, mKv4.3 channel currents; assay type: cell-based, mouse; settings: 1 µM, transiently transfected HEK293 cells, mean ± SE, n ≥ 3
# hERG channel = experiment: in vitro; assay type: cell-based; settings: human, whole-cell patch clamp, transiently transfected HEK293 cells, mean ± SE, n ≥ 3, read-out: inhibition of hERG channel currents
# Source text: as §1, §2, §3
# [1] = 1 µM, transiently transfected HEK293 cells, mean ± SE, n ≥ 3
SMILES,effect on hKv1.1 channel current (in words) (hKv1.1 channel),inhibition of hKv1.2 channel current (in words) (hKv1.2 channel; 1 µM),"IC50 (hKv1.2 channel; mean ± SE, n ≥ 3) [nM]",inhibition of hKv1.3 channel current (in words) (hKv1.3 channel; 1 µM),"IC50 (hKv1.3 channel; mean ± SE, n ≥ 3) [nM]","inhibition of hKv1.1 channel currents (hKv1.1 channel; transiently transfected HEK293 cells, mean ± SE) [%]","inhibition at 0.008 µM (hKv1.2 channel; 8 nM, mean ± SE, n ≥ 3, read-out: inhibition rate of hKv1.2 channel current) [%]","inhibition at 0.04 µM (hKv1.2 channel; 40 nM, mean ± SE, n ≥ 3, read-out: inhibition rate of hKv1.2 channel current) [%]","inhibition at 0.2 µM (hKv1.2 channel; 200 nM, mean ± SE, n ≥ 3, read-out: inhibition rate of hKv1.2 channel current) [%]",inhibition at 1 µM (hKv1.2 channel; [1]) [%],"inhibition at 0.008 µM (hKv1.3 channel; 8 nM, mean ± SE, n ≥ 3, read-out: inhibition rate of hKv1.3 channel current) [%]","inhibition at 0.04 µM (hKv1.3 channel; 40 nM, mean ± SE, n ≥ 3, read-out: inhibition rate of hKv1.3 channel current) [%]","inhibition at 0.2 µM (hKv1.3 channel; 200 nM, mean ± SE, n ≥ 3, read-out: inhibition rate of hKv1.3 channel current) [%]",inhibition at 1 µM (hKv1.3 channel; [1]) [%],inhibition of hKv1.6 channel currents (hKv1.6 channel) [%],inhibition of hKv3.2 channel currents (hKv3.2 channel) [%],inhibition of rKv4.1 channel currents (rKv4.1 channel) [%],inhibition of rKv4.2 channel currents (rKv4.2 channel) [%],inhibition of mKv4.3 channel currents (mKv4.3 channel) [%],inhibition at 1 µM (hERG channel) [%]
"CSCC[C@@H]1NC(=O)[C@@H]2CSSC[C@H](NC(=O)[C@@H](N)CCCCN)C(=O)N[C@@H]([C@@H](C)O)C(=O)N[C@@H](C)C(=O)N[C@@H](CO)C(=O)N[C@@H](CCCCN)C(=O)N[C@@H](CCC(N)=O)C(=O)N[C@H]3CSSC[C@H](NC(=O)[C@H](CCCCN)NC(=O)CNC(=O)[C@H](CC(N)=O)NC1=O)C(=O)N[C@@H](CCCNC(=N)N)C(=O)N[C@H](C(=O)N[C@@H](Cc1ccc(O)cc1)C(=O)O)CSSC[C@H](NC(=O)[C@H](C(C)C)NC(=O)[C@@H]1CCCN1C(=O)[C@H](Cc1c[nH]c4ccccc14)NC3=O)C(=O)N[C@@H](CCCCN)C(=O)N[C@@H](CCC(N)=O)C(=O)N[C@@H](CCSC)C(=O)N[C@@H](Cc1ccccc1)C(=O)NCC(=O)N[C@@H](CCCCN)C(=O)N1CCC[C@H]1C(=O)N[C@@H](CC(N)=O)C(=O)NCC(=O)N[C@@H](CCCCN)C(=O)N2 [rBmTX4-P1] (HELM PEPTIDE1{K.C.T.A.S.K.Q.C.W.P.V.C.K.Q.M.F.G.K.P.N.G.K.C.M.N.G.K.C.R.C.Y}$PEPTIDE1,PEPTIDE1,2:R3-23:R3|PEPTIDE1,PEPTIDE1,8:R3-28:R3|PEPTIDE1,PEPTIDE1,12:R3-30:R3$$$V2.0; C-terminus assumed; bridges inferred)",hardly inhibited the hKv1.1 channel current,inhibited the currents of the hKv1.2 and hKv1.3 channels with high affinities,45.7 ± 9.2,inhibited the currents of the hKv1.2 and hKv1.3 channels with high affinities,247 ± 47.9,–,–,–,–,–,–,–,–,–,–,–,–,–,–,–
"CSCC[C@@H]1NC(=O)[C@@H]2CSSC[C@H](NC(=O)[C@@H](N)CCCCN)C(=O)N[C@@H]([C@@H](C)O)C(=O)N[C@@H](C)C(=O)N[C@@H](CO)C(=O)N[C@@H](CCCCN)C(=O)N[C@@H](CCC(N)=O)C(=O)N[C@H]3CSSC[C@H](NC(=O)[C@H](CCCCN)NC(=O)CNC(=O)[C@H](CC(N)=O)NC1=O)C(=O)N[C@@H](CCCNC(=N)N)C(=O)N[C@H](C(=O)N[C@@H](Cc1ccc(O)cc1)C(=O)O)CSSC[C@H](NC(=O)[C@H](C(C)C)NC(=O)[C@@H]1CCCN1C(=O)[C@H](Cc1c[nH]c4ccccc14)NC3=O)C(=O)N[C@@H](CCCCN)C(=O)N[C@@H](CCC(N)=O)C(=O)N[C@@H](CCSC)C(=O)N[C@@H](Cc1ccccc1)C(=O)NCC(=O)N[C@@H](CCCCN)C(=O)N1CCC[C@H]1C(=O)N[C@@H](CC(N)=O)C(=O)NCC(=O)N[C@@H](CCCCN)C(=O)N2 [sBmTX4-P1] (HELM PEPTIDE1{K.C.T.A.S.K.Q.C.W.P.V.C.K.Q.M.F.G.K.P.N.G.K.C.M.N.G.K.C.R.C.Y}$PEPTIDE1,PEPTIDE1,2:R3-23:R3|PEPTIDE1,PEPTIDE1,8:R3-28:R3|PEPTIDE1,PEPTIDE1,12:R3-30:R3$$$V2.0; N-terminus and C-terminus assumed; bridges inferred)",–,–,74.7 ± 7,–,124 ± 26.7,5.9 ± 1.5,13.5 ± 1.6,40.2 ± 3.7,66 ± 6.3,88.4 ± 2,13.6 ± 3.7,32.6 ± 5.3,60.7 ± 2.9,73.1 ± 2.8,18.3 ± 4.3,5.3 ± 3.1,7.0 ± 1.8,6.9 ± 4.6,6.8 ± 2.8,35.7 ± 2.1
